# According to ChEMBL document CHEMBL1201862, “PubChem BioAssay data set” (2004):
#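 Exposure lasted 48 hours, with cells grown in 96-well plates and compounds tested at five concentrations. The concentration for 50% growth inhibition is given as GI50.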 Calls of active or inactive are those of the source. No stated cut-off is given here; in the data, active = GI50 up to about 1.1 µM and inactive = higher.
# Assays:
# Test in all cases: NCI tumour cell line growth inhibition, 48 h
# 786-0 = test system: 786-0
# A498 = test system: A498
# A549 = test system: A549
# ACHN = test system: ACHN
# CAKI-1 = test system: CAKI-1
# CCRF-CEM = test system: CCRF-CEM
# COLO 205 = test system: COLO 205
# DLD-1 = test system: DLD-1
# DMS-114 = test system: DMS-114
# DMS-273 = test system: DMS-273
# EKVX = test system: EKVX
# HCC 2998 = test system: HCC 2998
# HCT-116 = test system: HCT-116
# HCT-15 = test system: HCT-15
# HL-60 = test system: HL-60
# HOP-18 = test system: HOP-18
# HOP-62 = test system: HOP-62
# HOP-92 = test system: HOP-92
# HT-29 = test system: HT-29
# IGROV-1 = test system: IGROV-1
# K562 = test system: K562
# KM-20L2 = test system: KM-20L2
# KM12 = test system: KM12
# LOX IMVI = test system: LOX IMVI
# LXFL 529 = test system: LXFL 529
# M14 = test system: M14
# M19-MEL = test system: M19-MEL
# MOLT-4 = test system: MOLT-4
# Malme-3M = test system: Malme-3M
# NCI-H226 = test system: NCI-H226
# NCI-H23 = test system: NCI-H23
# NCI-H460 = test system: NCI-H460
# NCI-H522 = test system: NCI-H522
# OVCAR-3 = test system: OVCAR-3
# OVCAR-4 = test system: OVCAR-4
# OVCAR-5 = test system: OVCAR-5
# OVCAR-8 = test system: OVCAR-8
# RPMI-8226 = test system: RPMI-8226
# RXF 393 = test system: RXF 393
# SF-268 = test system: SF-268
# SF-295 = test system: SF-295
# SF-539 = test system: SF-539
# SK-MEL-28 = test system: SK-MEL-28
# SK-MEL-2 = test system: SK-MEL-2
# SK-MEL-5 = test system: SK-MEL-5
# SK-OV-3 = test system: SK-OV-3
# SN12C = test system: SN12C
# SNB-19 = test system: SNB-19
# SNB-75 = test system: SNB-75
# SNB-78 = test system: SNB-78
# SR = test system: SR
# SW-620 = test system: SW-620
# U-251 = test system: U-251
# UACC-257 = test system: UACC-257
# UACC-62 = test system: UACC-62
# UO-31 = test system: UO-31
# XF498 = test system: XF498
# TK-10 = test system: TK-10
compound,measurement,setting,value
OCCCCCNc1ccnc2cc(Cl)ccc12,GI50,786-0,> 100 µM (inactive)
same,GI50,A498,> 100 µM (inactive)
same,GI50,A549,> 100 µM (inactive)
same,GI50,ACHN,> 100 µM (inactive)
same,GI50,CAKI-1,> 100 µM (inactive)
same,GI50,CCRF-CEM,> 100 µM (inactive)
same,GI50,COLO 205,33.7 µM (inactive)
same,GI50,DLD-1,> 100 µM (inactive)
same,GI50,DMS-114,36.7 µM (inactive)
same,GI50,DMS-273,> 100 µM (inactive)
same,GI50,EKVX,86.3 µM (inactive)
same,GI50,HCC 2998,> 100 µM (inactive)
same,GI50,HCT-116,33.7 µM (inactive)
same,GI50,HCT-15,> 100 µM
same,GI50,HL-60,22 µM (inactive)
same,GI50,HOP-18,> 100 µM (inactive)
same,GI50,HOP-62,> 100 µM (inactive)
same,GI50,HOP-92,> 100 µM (inactive)
same,GI50,HT-29,29.2 µM (inactive)
same,GI50,IGROV-1,> 100 µM (inactive)
same,GI50,K562,21.9 µM (inactive)
same,GI50,KM-20L2,> 100 µM (inactive)
same,GI50,KM12,> 100 µM (inactive)
same,GI50,LOX IMVI,> 10 µM (inactive)
same,GI50,LXFL 529,> 100 µM (inactive)
same,GI50,M14,> 100 µM (inactive)
same,GI50,M19-MEL,> 100 µM (inactive)
same,GI50,MOLT-4,24.6 µM (inactive)
same,GI50,Malme-3M,> 100 µM (inactive)
same,GI50,NCI-H226,74.5 µM (inactive)
same,GI50,NCI-H23,> 100 µM (inactive)
same,GI50,NCI-H460,69.3 µM (inactive)
same,GI50,NCI-H522,87.5 µM (inactive)
same,GI50,OVCAR-3,65.5 µM (inactive)
same,GI50,OVCAR-4,> 100 µM (inactive)
same,GI50,OVCAR-5,83.2 µM (inactive)
same,GI50,OVCAR-8,64.1 µM (inactive)
same,GI50,RPMI-8226,31.3 µM (inactive)
same,GI50,RXF 393,> 100 µM (inactive)
same,GI50,SF-268,> 100 µM (inactive)
same,GI50,SF-295,47.3 µM (inactive)
same,GI50,SF-539,> 100 µM (inactive)
same,GI50,SK-MEL-28,> 100 µM (inactive)
same,GI50,SK-MEL-2,> 100 µM (inactive)
same,GI50,SK-MEL-5,53.5 µM (inactive)
same,GI50,SK-OV-3,> 100 µM (inactive)
same,GI50,SN12C,> 100 µM (inactive)
same,GI50,SNB-19,> 100 µM (inactive)
same,GI50,SNB-75,> 100 µM (inactive)
same,GI50,SNB-78,> 100 µM (inactive)
same,GI50,SR,19.5 µM (inactive)
same,GI50,SW-620,> 100 µM (inactive)
same,GI50,U-251,> 100 µM (inactive)
same,GI50,UACC-257,> 100 µM (inactive)
same,GI50,UACC-62,> 100 µM (inactive)
same,GI50,UO-31,24.2 µM (inactive)
same,GI50,XF498,> 100 µM (inactive)
CC(=O)CC(=O)Nc1ccccc1[N+](=O)[O-],GI50,786-0,> 100 µM (inactive)
same,GI50,A498,> 100 µM (inactive)
same,GI50,A549,> 100 µM (inactive)
same,GI50,ACHN,> 100 µM (inactive)
same,GI50,CAKI-1,> 100 µM (inactive)
same,GI50,CCRF-CEM,> 100 µM (inactive)
same,GI50,COLO 205,> 100 µM (inactive)
same,GI50,DLD-1,> 100 µM (inactive)
same,GI50,DMS-114,> 100 µM (inactive)
same,GI50,DMS-273,> 100 µM (inactive)
same,GI50,EKVX,> 100 µM (inactive)
same,GI50,HCC 2998,> 100 µM (inactive)
same,GI50,HCT-116,> 100 µM (inactive)
same,GI50,HCT-15,> 100 µM
same,GI50,HL-60,> 100 µM (inactive)
same,GI50,HOP-18,> 100 µM (inactive)
same,GI50,HOP-62,> 100 µM (inactive)
same,GI50,HOP-92,> 100 µM (inactive)
same,GI50,HT-29,> 100 µM (inactive)
same,GI50,IGROV-1,> 100 µM (inactive)
same,GI50,K562,> 100 µM (inactive)
same,GI50,KM-20L2,> 100 µM (inactive)
same,GI50,KM12,> 100 µM (inactive)
same,GI50,LXFL 529,> 100 µM (inactive)
same,GI50,M14,> 100 µM (inactive)
same,GI50,M19-MEL,> 100 µM (inactive)
same,GI50,MOLT-4,> 100 µM (inactive)
same,GI50,Malme-3M,> 100 µM (inactive)
same,GI50,NCI-H226,> 100 µM (inactive)
same,GI50,NCI-H23,> 100 µM (inactive)
same,GI50,NCI-H460,> 100 µM (inactive)
same,GI50,NCI-H522,> 100 µM (inactive)
same,GI50,OVCAR-3,> 100 µM (inactive)
same,GI50,OVCAR-4,> 100 µM (inactive)
same,GI50,OVCAR-5,> 100 µM (inactive)
same,GI50,OVCAR-8,> 100 µM (inactive)
same,GI50,RPMI-8226,> 100 µM (inactive)
same,GI50,RXF 393,> 100 µM (inactive)
same,GI50,SF-268,> 100 µM (inactive)
same,GI50,SF-295,> 100 µM (inactive)
same,GI50,SF-539,> 100 µM (inactive)
same,GI50,SK-MEL-28,> 100 µM (inactive)
same,GI50,SK-MEL-2,> 100 µM (inactive)
same,GI50,SK-MEL-5,> 100 µM (inactive)
same,GI50,SK-OV-3,> 100 µM (inactive)
same,GI50,SN12C,> 100 µM (inactive)
same,GI50,SNB-19,> 100 µM (inactive)
same,GI50,SNB-75,> 100 µM (inactive)
same,GI50,SNB-78,> 100 µM (inactive)
same,GI50,SR,> 100 µM (inactive)
same,GI50,SW-620,> 100 µM (inactive)
same,GI50,TK-10,> 100 µM (inactive)
same,GI50,U-251,> 100 µM (inactive)
same,GI50,UACC-257,> 100 µM (inactive)
same,GI50,UACC-62,> 100 µM (inactive)
same,GI50,UO-31,> 100 µM (inactive)
same,GI50,XF498,> 100 µM (inactive)
